Experimental data reported in patent US20230279233A1, “ATROROSINS AS FOOD COLORS” (Chromologics ApS, priority 2020, published 2023).
“And” between values parts separate entries of the source, which are not always exact repeats. Identical values can stand only once. “Also recorded” adds a separate entry of the source. Like-named read-outs stand apart in the source and are kept apart here.

Assays:
[1] = Temperature stability at 60° C. and 80° C. in McIlvaine buffer pH 5, absorption maxima
Procedure: Buffer and atrorosin was mixed for 5 minutes before the solutions were subjected heating in an incubator at 60° C. and 80° C. to colorimetric analysis using spectrophotometer. The absorption maxima at 425 nm and 490 nm were determined in a microtiter plate with a 0.45 cm cell length with buffer as blank. In comparison to the data in Table 3, the absorption spectrum of betanin is determined as above. […] In comparison to Table 5, the absorption spectrum of betanin is determined as above.

[2] = DPPH antioxidant assay; details: 0 μM to 45 μM, 30 minutes, absorbance 517 nm, compared to Trolox (FIG. 3)
Procedure: To assess antioxidant activity of Atrorosin-E, the common DPPH (2,2 Diphenyl-1-picrylhydrazyl) assay was used. A working solution of DPPH was made with a concentration of 220 μg/ml in ethanol. 1 g of the resulting powder from Example 2 was used to make a dilution row of atrorosin-E from 0 μM to 45 μM. […] of each sample was reacted to 1000 μL of DPPH for 30 minutes in the dark before absorbance was measured.
Antioxidant activity was determined by calculating the inhibition of emission of DPPH by measuring absorbance of DPPH at 517 nm before and after incubation with reactants. As Atrorosins have background emission at 517, the before sample was measured seconds after addition of atrorosins rather than before. Antioxidant activity of Atrorosin-E was compared to the standard Trolox (FIG. 3).

[3] = system: TA 98; experiment: mini-Ames (AMES MPF) genotoxicity; type: cell-based; details: for genotoxic effects (in words): mini-Ames study
Procedure: Resulting powder from example 2 was sent to Cyprotox to asses for genotoxicity in a mini-Ames experiment. 43.2 mg of atrorosin was sent to Cyprotox. Mini-Ames test were conducted under the guidelines of OECD.
In comparison to the atrorosin tested above, similar 46.4 mg of carminic acid was also sent to Cyprotox to assess for genotoxicity.

[4] = Pharmacokinetic profile in rats, IV and PO; type: in vivo; details: for Cmax: read-out: C0/Cmax
Procedure: Resulting powder from example 2 was sent to Evotec to asses for the pharmacokinetic profile of atrorosin. 6 rats were used, 3 rats for IV injection of atrorosin and 3 rats for PO. The rats were injected or given through mouth gauge 2 mg/kg, and blood samples were taken at regular intervals.
In comparison to example 10, similar carminic acid was also sent to Evotec to assess the pharmacokinetic profile.

[5] = pH stability in McIlvaine buffer pH 2.2-7.2, absorption maxima by spectrophotometer; type: physicochemical
[6] = rat, IV 2 mg/kg, individual rats 1-3, 2 mg/kg
[7] = rat, PO 2 mg/kg, individual rats 4-6, 2 mg/kg

With `CCCCCCCC(=O)C1=C2C=C3C=C(/C=C\C(=O)O)N([C@@H](CCC(=O)O)C(=O)O)C=C3C(=O)C2(C)OC1=O` (stereo partly shown) [Atrorosin-E] the “Absorption at 425 nm” value ([1]; 60° C., pH 5, 1 H) was 2.01, the “Absorption at 490 nm” value ([1]; 60° C., pH 5, 1 H) was 3.53 and the “Absorption at 425 nm” value ([1]; 60° C., pH 5, 2 H) was 1.98. The “Absorption at 490 nm” value ([1]; 60° C., pH 5, 2 H) was 3.42, the “Absorption at 425 nm” value ([1]; 60° C., pH 5, 3 H) was 1.78 and the “Absorption at 490 nm” value ([1]; 60° C., pH 5, 3 H) was 3.11. The “Absorption at 425 nm” value ([1]; 60° C., pH 5, 24 H) was 0.78, the “Absorption at 490 nm” value ([1]; 60° C., pH 5, 24 H) was 1.31 and the “Absorption at 425 nm” value ([1]; 60° C., pH 5, T0: Start) was 2.03. For the same compound, the “Absorption at 490 nm” value ([1]; 60° C., pH 5, T0: Start) was 3.55, the “Absorption at 425 nm” value ([1]; 80° C., pH 5, 1 H) was 1.66 and the “Absorption at 490 nm” value ([1]; 80° C., pH 5, 1 H) was 2.86. For the same compound, the “Absorption at 425 nm” value ([1]; 80° C., pH 5, 2 H) was 1.23, the “Absorption at 490 nm” value ([1]; 80° C., pH 5, 2 H) was 2.13 and the “Absorption at 425 nm” value ([1]; 80° C., pH 5, 3 H) was 0.99. The “Absorption at 490 nm” value ([1]; 80° C., pH 5, 3 H) was 1.71, the “Absorption at 425 nm” value ([1]; 80° C., pH 5, 15 min) was 2.00 and the “Absorption at 490 nm” value ([1]; 80° C., pH 5, 15 min) was 3.38. For the same compound, the “Absorption at 425 nm” value ([1]; 80° C., pH 5, T0: Start) was 2.04, the “Absorption at 490 nm” value ([1]; 80° C., pH 5, T0: Start) was 3.48 and the “Antioxidant activity (inhibition of DPPH, in words)” value [2] was “far more potent antioxidant than the control antioxidant Trolox”. For the same compound, the “Fold increase (over baseline)” value ([3]; TA 98 +S9, 62.5 μg/ml) was 0.55, the “mean # pos. Wells” value ([3]; TA 98 +S9, 62.5 μg/ml) was 1.33 and the “Fold increase (over baseline)” value ([3]; TA 98 +S9, 125 μg/ml) was 0.28. The “mean # pos. Wells” value ([3]; TA 98 +S9, 125 μg/ml) was 0.67, the “Fold increase (over baseline)” value ([3]; TA 98 +S9, 250 μg/ml) was 0.42 and the “mean # pos. Wells” value ([3]; TA 98 +S9, 250 μg/ml) was 1.00. The “Fold increase (over baseline)” value ([3]; TA 98 +S9, 500 μg/ml) was 0.28, the “mean # pos. Wells” value ([3]; TA 98 +S9, 500 μg/ml) was 0.67 and the “Fold increase (over baseline)” value ([3]; TA 98 +S9, 1000 μg/ml) was 0.69. The “mean # pos. Wells” value ([3]; TA 98 +S9, 1000 μg/ml) was 1.67, the “Fold increase (over baseline)” value ([3]; TA 98 +S9, 2000 μg/ml) was 0.00 and the “mean # pos. Wells” value ([3]; TA 98 +S9, 2000 μg/ml) was 0.00. For the same compound, the “Fold increase (over baseline)” value ([3]; TA 98 −S9, 62.5 μg/ml) was 0.00, the “mean # pos. Wells” value ([3]; TA 98 −S9, 62.5 μg/ml) was 0.00 and the “Fold increase (over baseline)” value ([3]; TA 98 −S9, 125 μg/ml) was 0.76. For the same compound, the “mean # pos. Wells” value ([3]; TA 98 −S9, 125 μg/ml) was 1.00, the “Fold increase (over baseline)” value ([3]; TA 98 −S9, 250 μg/ml) was 1.52 and the “mean # pos. Wells” value ([3]; TA 98 −S9, 250 μg/ml) was 2.00. The “Fold increase (over baseline)” value ([3]; TA 98 −S9, 500 μg/ml) was 0.76, the “mean # pos. Wells” value ([3]; TA 98 −S9, 500 μg/ml) was 1.00 and the “Fold increase (over baseline)” value ([3]; TA 98 −S9, 1000 μg/ml) was 0.51. The “mean # pos. Wells” value ([3]; TA 98 −S9, 1000 μg/ml) was 0.67, the “Fold increase (over baseline)” value ([3]; TA 98 −S9, 2000 μg/ml) was 0.51 and the “mean # pos. Wells” value ([3]; TA 98 −S9, 2000 μg/ml) was 0.67. For the same compound, the “genotoxic effects (in words)” value [3] was “do not exert any genotoxic effects”, the “genotoxic effects (in words)” value ([3]; listed as atrorosin) was “not genotoxic; also recorded: neither genotoxic” and the C0/Cmax ([4]; rat, IV 2 mg/kg, Mean) was 10098 ng/mL. For the same compound, the “CL/CL_F (plasma clearance)” value ([4]; rat, IV 2 mg/kg, Mean) was 16 ± 2 mL/min/kg, the Clast ([4]; rat, IV 2 mg/kg, Mean) was 3.15 ng/mL and the MRT ([4]; rat, IV 2 mg/kg, Mean) was 0.5 h. It also gave a Vdss ([4]; rat, IV 2 mg/kg, Mean) of 0.5 L/kg, a t½ ([4]; rat, IV 2 mg/kg, Mean) of 1.3 ± 0.6 h and a Cmax ([4]; rat, IV 2 mg/kg, Mean) of 18.6 µM. The Vdss ([4]; rat, IV 2 mg/kg, individual rats 1-3) was 0.5 L/kg, the AUC0-t [4, 6] was 2330 ng · hr/mL and 1818 ng · hr/mL and 2055 ng · hr/mL and 4297 nM · hr and 3352 nM · hr and 3790 nM · hr and the AUCinf [4, 6] was 2336 ng · hr/mL and 1822 ng · hr/mL and 2063 ng · hr/mL and 4308 nM · hr and 3360 nM · hr and 3804 nM · hr. The C0/Cmax [4, 6] was 9019 ng/mL and 10685 ng/mL and 10589 ng/mL, the CL/CL_F [4, 6] was 14 mL/min/kg and 18 mL/min/kg and 16 mL/min/kg and the Clast [4, 6] was 3.26 ng/mL and 3.45 ng/mL and 2.73 ng/mL. The MRT [4, 6] was 0.5 h (2×) and 0.4 h, the Tlast [4, 6] was 8 h (2×) and 6 h and the t½ [4, 6] was 1.3 h and 0.8 h and 1.9 h. For the same compound, the Cmax [4, 6] was 16.6 µM and 19.7 µM and 19.5 µM, the C0/Cmax ([4]; rat, PO 2 mg/kg, Mean) was 4.46 ng/mL and the Clast ([4]; rat, PO 2 mg/kg, Mean) was 3.28 ng/mL. For the same compound, the “Bioavailability (%) Using AUC0-t” value ([4]; rat, PO 2 mg/kg, Mean, 2 mg/kg) was 0.3%, the “Bioavailability (%) Using AUC0-t” value ([4]; rat, PO 2 mg/kg, Mean, listed as atrorosin, 2 mg/kg) was 0.3% and the Cmax ([4]; rat, PO 2 mg/kg, Mean) was 0.0082 µM. For the same compound, the Tmax ([4]; rat, PO 2 mg/kg, Median) was 1 h, the Tlast ([4]; rat, PO 2 mg/kg, individual rats 4-6) was 2 h and the AUC0-t [4, 7] was 6.35 ng · hr/mL and 7.6 ng · hr/mL and 5.76 ng · hr/mL and 11.7 nM · hr and 13.9 nM · hr and 10.6 nM · hr. For the same compound, the “Bioavailability (%) Using AUC0-t” value [4, 7] was 0.3% (2×) and 0.4%, the C0/Cmax [4, 7] was 4.35 ng/mL and 5.35 ng/mL and 3.68 ng/mL and the Clast [4, 7] was 2.6 ng/mL and 2.88 ng/mL. The Tmax [4, 7] was 2 h and 1 h and 0.25 h, the Cmax [4, 7] was 0.00803 µM and 0.0099 µM and 0.00679 µM and the Clast ([4]; rat, in vivo, po, 2 mg/kg) was 4.35 ng/mL. The “safety when ingested / adverse effects on rats (in words)” value ([4]; rats, 2 mg/kg IV or PO, 2 mg/kg) was “safe when ingested; also recorded: nor does it have any adverse effects on rats”, the “pH stability (in words)” value ([5]; compared with carminic acid, Tables 1 and 2) was “superior pH stability at low pH” and the “Absorption at 425 nm” value ([5]; pH 2.2) was 0.63. For the same compound, the “Absorption at 490 nm” value ([5]; pH 2.2) was 3.30, the “Absorption at 425 nm” value ([5]; pH 3.5) was 0.73 and the “Absorption at 490 nm” value ([5]; pH 3.5) was 3.92. For the same compound, the “Absorption at 425 nm” value ([5]; pH 5) was 0.75, the “Absorption at 490 nm” value ([5]; pH 5) was 3.94 and the “Absorption at 425 nm” value ([5]; pH 7.2) was 0.73. For the same compound, the “Absorption at 490 nm” value ([5]; pH 7.2) was 3.91.
